# Strand notation (5' to 3'): a small letter for the sugar, then the base; units joined by * are phosphorothioate-linked, units joined directly phosphodiester-linked; [ ] holds rarer units or linkages, { } end groups; capitals alone tell only the bases. k = constrained ethyl (cEt); [5mC] = 5-methylcytosine; d = 2'-deoxy (DNA)
# Assays:
# human SMAD7 mRNA [1] = test: Antisense inhibition of human SMAD7 mRNA expression in Hep3B cells by 3-10-3 cEt gapmers, 10,000 nM, electroporation (Example 2); type: cell-based; settings: approximately 24 hours; for % inhibition of SMAD7 mRNA expression: electroporation, 10,000 nM antisense oligonucleotide, RTS5062, relative to untreated control cells
# Procedure, shortened: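 SMAD7 mRNA was measured by real-time PCR (RTS5062) with RiboGreen total-RNA normalization, about 24 h after 10,000 nM gapmer was delivered by electroporation into Hep3B cells at 20,000 per well. Gapmers were 16-mer 3-10-3 cEt, fully phosphorothioate; values are % inhibition versus untreated controls.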
# human SMAD7 mRNA [2] = test: Dose-dependent inhibition of human SMAD7 mRNA expression in Hep3B cells (Example 3, Study 1 and 2); type: cell-based; settings: electroporation; for % inhibition of SMAD7 mRNA expression: approximately 16 hours; for IC50: Study 2 (740-20000 nM)
# Experimental: The antisense oligonucleotides were tested in a series of experiments that had similar culture conditions as described below.
# (§1) Cells were plated at a density of 20,000 cells per well and transfected using electroporation with 0.31 μM, 1.25 μM, 5.00 μM, or 20.00 μM concentrations of antisense oligonucleotide, as specified in the Tables below. ION 483663 was included in the assays for comparison. After a treatment period of approximately 16 hours, RNA was isolated from the cells and SMAD7 mRNA levels were measured by quantitative real-time PCR. Primer probe set RTS5062 was used to measure human SMAD7 mRNA levels. SMAD7 mRNA levels were adjusted according to total RNA content, as measured by RIBOGREEN®. Results are presented as percent inhibition of SMAD7 mRNA expression, relative to untreated control cells.
# The half maximal inhibitory concentration (IC50) of each oligonucleotide is also presented.
# as §1, with “0.74” for “0.31”, “2.22” for “1.25”, “6.67” for “5.00”, “below.” for “below. ION 483663 was included in the assays for comparison.”
# [3] = SMAD7 mRNA, Hep3B cells, electroporation with 10,000 nM antisense oligonucleotide, primer probe set RTS5062, relative to untreated control cells
# [4] = 740 nM, Study 2, relative to untreated control cells
# [5] = SMAD7 mRNA, Hep3B cells, 10,000 nM antisense oligonucleotide, electroporation, primer probe set RTS5062, relative to untreated control cells
# [6] = Hep3B cells, electroporation with 10,000 nM antisense oligonucleotide, SMAD7 mRNA by RT-PCR (RTS5062), relative to untreated control cells
# [7] = Hep3B cells, electroporation with 10,000 nM antisense oligonucleotide, RTS5062, percent inhibition of SMAD7 mRNA relative to untreated control cells
Substance,% inhibition of SMAD7 mRNA expression (human SMAD7 mRNA [2]; [4]) [%],"% inhibition of SMAD7 mRNA expression (human SMAD7 mRNA [2]; 2220 nM, Study 2) [%]","% inhibition of SMAD7 mRNA expression (human SMAD7 mRNA [2]; 6670.0 nM, Study 2) [%]","% inhibition of SMAD7 mRNA expression (human SMAD7 mRNA [2]; 20000.0 nM, Study 2) [%]",IC50 (human SMAD7 mRNA [2]) [µM],further results
830010 (antisense kG*kT*k[5mC]*dT*d[5mC]*dA*dA*dA*dT*dG*dG*dG*d[5mC]*kT*kT*k[5mC]) [compound 830010],0,12,52,72,1,% Inhibition (human SMAD7 mRNA [1]; [3]): 68%
829776 (antisense kG*k[5mC]*kG*dA*dG*dT*dA*dG*dG*dA*d[5mC]*dG*dA*kG*kG*kG) [compound 829776],26,40,66,81,5,% Inhibition (human SMAD7 mRNA [1]; [5]): 64%
800025 (kA*kG*kT*dA*d[5mC]*dA*dA*dG*dG*dA*d[5mC]*dT*dA*kA*kG*kG; antisense) [compound 800025],0,42,55,74,6,% Inhibition (human SMAD7 mRNA [1]; [6]): 65%
799708 (antisense k[5mC]*kA*kA*dA*d[5mC]*dT*dT*dG*dT*dG*dG*dT*dA*kA*kA*kA) [compound 799708],15,35,52,79,11,% Inhibition (human SMAD7 mRNA [1]; [7]): 60%
799540 (kA*kG*k[5mC]*dT*dG*dA*dA*dG*d[5mC]*d[5mC]*d[5mC]*d[5mC]*d[5mC]*k[5mC]*kA*kA; antisense) [compound 799540],41,60,63,73,5,% inhibition of SMAD7 mRNA expression (human SMAD7 mRNA [1]; Hep3B cells): 76%
798733 (antisense k[5mC]*kG*k[5mC]*dG*dG*d[5mC]*dT*dG*dG*d[5mC]*dG*dG*dG*kT*kG*kG) [compound 798733],58,84,88,95,4,% Inhibition (human SMAD7 mRNA [1]; [6]): 72%
799669 (antisense kT*kA*kT*dG*dA*d[5mC]*dA*dG*dA*dT*dG*d[5mC]*d[5mC]*kA*kG*k[5mC]) [compound 799669],47,72,82,95,3,% Inhibition (human SMAD7 mRNA [1]; [7]): 81%
798894 (kA*kG*k[5mC]*dA*d[5mC]*dT*dG*dG*d[5mC]*d[5mC]*d[5mC]*d[5mC]*dA*kG*k[5mC]*k[5mC]; antisense) [compound 798894],–,–,–,–,–,"% Inhibition (human SMAD7 mRNA [1]; Hep3B cells, 10,000 nM antisense oligonucleotide, electroporation, RT-PCR primer probe set RTS5062, relative to untreated control cells): 55%"
799694 (antisense kA*kA*kG*dG*dA*dA*dT*dT*dA*dT*dG*dA*d[5mC]*kA*k[5mC]*kA) [compound 799694],–,–,–,–,–,% inhibition of SMAD7 mRNA expression (human SMAD7 mRNA [1]; Hep3B cells): 7%
829872 (antisense kT*kG*kT*d[5mC]*d[5mC]*dA*dG*dT*dG*dT*dG*dG*d[5mC]*kG*kG*kA) [compound 829872],–,–,–,–,–,% Inhibition (human SMAD7 mRNA [1]; [3]): 50%
830162 (antisense kA*k[5mC]*kA*dA*dG*dG*dT*dG*dA*dA*dA*dG*dT*kT*kA*kT) [compound 830162],–,–,–,–,–,% Inhibition (human SMAD7 mRNA [1]; [6]): 20%
799297 (antisense kA*kA*kA*dG*dG*d[5mC]*dT*dG*dA*d[5mC]*dT*d[5mC]*dG*k[5mC]*kG*kG) [compound 799297],–,–,–,–,–,% Inhibition (human SMAD7 mRNA [1]; [7]): 62%
829993 (kG*kG*k[5mC]*dA*dG*dG*dG*d[5mC]*d[5mC]*dG*d[5mC]*dG*dA*kG*kG*k[5mC]; antisense) [compound 829993],–,–,–,–,–,% Inhibition (human SMAD7 mRNA [1]; [3]): 26%
800086 (antisense kA*kG*k[5mC]*dA*dG*d[5mC]*dA*dG*d[5mC]*d[5mC]*d[5mC]*dT*dG*kT*kA*k[5mC]) [compound 800086],–,–,–,–,–,% Inhibition (human SMAD7 mRNA [1]; [6]): 40%
829720 (antisense kG*k[5mC]*kG*d[5mC]*d[5mC]*dA*dG*dT*d[5mC]*dT*d[5mC]*d[5mC]*d[5mC]*kG*kG*kA) [compound 829720],–,–,–,–,–,% Inhibition (human SMAD7 mRNA [1]; [5]): 14%
799799 (kA*kA*kA*dA*d[5mC]*dA*dT*d[5mC]*d[5mC]*d[5mC]*dA*d[5mC]*dT*kT*k[5mC]*kT; antisense) [compound 799799],–,–,–,–,–,% inhibition of SMAD7 mRNA expression (human SMAD7 mRNA [1]; Hep3B cells): 28%
799278 (antisense k[5mC]*k[5mC]*k[5mC]*dG*dT*d[5mC]*dT*dG*dG*dG*d[5mC]*dT*d[5mC]*k[5mC]*kG*kG) [compound 799278],–,–,–,–,–,% Inhibition (human SMAD7 mRNA [1]; [7]): 14%
